Laboratory results taken from patent US20260007681A1, “INDOLE DERIVATIVES AS ESTROGEN RECEPTOR DEGRADERS” (REGENTS OF THE UNIVERSITY OF MICHIGAN, priority 2022, published 2026).

What follows are compounds tested against ER (Homo sapiens (Human), UniProt P03372) (assay: Western blot analysis (Compounds B1-B278)). Conditions: ER degradation by traditional Western blot; DC50 classes.
Type: cell-based
Description: Western Blot Analysis. The cells that are treated with the compounds are lysed in Radioimmunoprecipitation Assay Protein Lysis and Extraction Buffer (e.g., 25 mmol/L Tris.HCl, pH 7.6, 150 mmol/L NaCl, 1% Nonidet P-40, 1% sodium deoxycholate, and 0.1% sodium dodecyl sulfate) containing proteinase inhibitor cocktail. Equal amounts of total protein are electrophoresed through 10% SDS-polyacrylamide gels after determination of protein concentration by BCA assay. The separated protein bands are transferred onto PVDF membranes and blotted against different antibodies. The blots are scanned, and the band intensities are quantified (e.g., by using GelQuant.NET software provided by biochemlabsolutions.com). The relative mean intensity of target proteins is expressed after normalization to the intensity of glyceraldehyde-3-phosphate dehydrogenase bands.
Western Blot Analysis. Western blot analysis was performed essentially as described previously. The cells treated with indicated compounds were lysed in Radioimmunoprecipitation Assay Protein Lysis and Extraction Buffer (25 mmol/L Tris.HCl, pH 7.6, 150 mmol/L NaCl, 1% Nonidet P-40, 1% sodium deoxycholate, and 0.1% sodium dodecyl sulfate) containing proteinase inhibitor cocktail (Roche Diagnostics, Mannheim, Germany). Equal amounts of total protein were electrophoresed through 10% SDS-polyacrylamide gels after determination of protein concentration by BCA assay (Fisher Scientific, Pittsburgh, PA). The separated protein bands were transferred onto PVDF membranes (GE Healthcare Life Sciences, Marlborough, MA) and blotted against different antibodies, as indicated. The blots were scanned, and the band intensities were quantified using GelQuant.NET software provided by biochemlabsolutions.com. The relative mean intensity of target proteins was expressed after normalization to the intensity of glyceraldehyde-3-phosphate dehydrogenase bands.

Chain of ER (P03372 whole entry): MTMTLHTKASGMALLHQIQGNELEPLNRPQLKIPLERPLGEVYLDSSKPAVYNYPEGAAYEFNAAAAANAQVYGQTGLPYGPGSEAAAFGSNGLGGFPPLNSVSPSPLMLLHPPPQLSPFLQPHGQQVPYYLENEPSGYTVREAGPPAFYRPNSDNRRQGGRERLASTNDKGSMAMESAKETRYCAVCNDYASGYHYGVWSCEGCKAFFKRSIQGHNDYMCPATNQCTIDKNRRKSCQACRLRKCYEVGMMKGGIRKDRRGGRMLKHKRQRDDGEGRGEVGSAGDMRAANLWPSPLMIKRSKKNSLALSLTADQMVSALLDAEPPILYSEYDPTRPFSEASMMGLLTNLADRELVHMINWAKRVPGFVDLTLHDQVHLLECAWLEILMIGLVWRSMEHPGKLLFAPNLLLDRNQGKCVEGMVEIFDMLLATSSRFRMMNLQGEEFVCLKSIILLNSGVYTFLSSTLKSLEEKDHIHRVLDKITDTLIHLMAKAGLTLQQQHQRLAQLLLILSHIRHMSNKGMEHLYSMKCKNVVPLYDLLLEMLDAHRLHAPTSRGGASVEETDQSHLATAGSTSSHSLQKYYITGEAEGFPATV

| SMILES | Traditional Western Degradation Potency |
| --- | --- |
| C[C@@H]1Cc2c([nH]c3ccccc23)[C@@H](c2c(F)cc(N3CCN(CCN4Cc5cc6c(cc5C4)C(=O)N(C4CCC(=O)NC4=O)C6)CC3)cc2F)N1CC(F)F (stereo partly drawn) [Compound B5, 3-(6-(2-(4-(4-((1R,3R)-2-(2,2-difluoroethyl)-3-methyl-2,3,4,9-tetrahydro-1H-pyrido[3,4-b]indol-1-yl)-3,5-difluorophenyl)piperazin-1-yl)ethyl)-1-oxo-3,5,6,7-tetrahydropyrrolo[3,4-f]isoindol-2(1H)-yl)piperidine-2,6-dione] | B (“B”: 10-100 nM) |
| C[C@@H]1Cc2c([nH]c3ccccc23)[C@@H](c2c(F)cc(N3CCC(N4CC(CC(=O)N5Cc6cc7c(cc6C5)C(=O)N(C5CCC(=O)NC5=O)C7=O)C4)CC3)cc2F)N1CC(F)F (stereo partly drawn) [Compound B6, 6-(2-(1-(1-(4-((1R,3R)-2-(2,2-difluoroethyl)-3-methyl-2,3,4,9-tetrahydro-1H-pyrido[3,4-b]indol-1-yl)-3,5-difluorophenyl)piperidin-4-yl)azetidin-3-yl)acetyl)-2-(2,6-dioxopiperidin-3-yl)-6,7-dihydropyrrolo[3,4-f]isoindole-1,3(2H,5H)-dione] | C (“C”: >100 nM) |
| C[C@@H]1Cc2c([nH]c3ccccc23)[C@@H](c2c(F)cc(N3CCC(N4CC(CC(=O)N5Cc6cc7c(cc6C5)C(=O)N(C5CCC(=O)NC5=O)C7)C4)CC3)cc2F)N1CC(F)F (stereo partly drawn) [Compound B7, 3-(6-(2-(1-(1-(4-((1R,3R)-2-(2,2-difluoroethyl)-3-methyl-2,3,4,9-tetrahydro-1H-pyrido[3,4-b]indol-1-yl)-3,5-difluorophenyl)piperidin-4-yl)azetidin-3-yl)acetyl)-1-oxo-3,5,6,7-tetrahydropyrrolo[3,4-f]isoindol-2(1H)-yl)piperidine-2,6-dione] | B (“B”: 10-100 nM) |
| C[C@@H]1Cc2c([nH]c3ccccc23)[C@@H](c2c(F)cc(N3CC4(CN(CC(=O)N5Cc6cc7c(cc6C5)C(=O)N(C5CCC(=O)NC5=O)C7)C4)C3)cc2F)N1CC(F)F (stereo partly drawn) [Compound B8, 3-(6-(2-(6-(4-((1R,3R)-2-(2,2-difluoroethyl)-3-methyl-2,3,4,9-tetrahydro-1H-pyrido[3,4-b]indol-1-yl)-3,5-difluorophenyl)-2,6-diazaspiro[3.3]heptan-2-yl)acetyl)-1-oxo-3,5,6,7-tetrahydropyrrolo[3,4-f]isoindol-2(1H)-yl)piperidine-2,6-dione] | A (“A”: <10 nM) |
| C[C@@H]1Cc2c([nH]c3ccccc23)[C@@H](c2c(F)cc(N3CC4(CCN(C(=O)CN5Cc6cc7c(cc6C5)C(=O)N(C5CCC(=O)NC5=O)C7)C4)C3)cc2F)N1CC(F)F (stereo partly drawn) [Compound B9, 3-(6-(2-(2-(4-((1R,3R)-2-(2,2-difluoroethyl)-3-methyl-2,3,4,9-tetrahydro-1H-pyrido[3,4-b]indol-1-yl)-3,5-difluorophenyl)-2,6-diazaspiro[3.4]octan-6-yl)-2-oxoethyl)-1-oxo-3,5,6,7-tetrahydropyrrolo[3,4-f]isoindol-2(1H)-yl)piperidine-2,6-dione] | A (“A”: <10 nM) |
| C[C@@H]1Cc2c([nH]c3ccccc23)[C@@H](c2c(F)cc(N3CCC4(CCN(C(=O)CN5Cc6cc7c(cc6C5)C(=O)N(C5CCC(=O)NC5=O)C7)C4)C3)cc2F)N1CC(F)F (stereo partly drawn) [Compound B11, 3-(6-(2-(7-(4-((1R,3R)-2-(2,2-difluoroethyl)-3-methyl-2,3,4,9-tetrahydro-1H-pyrido[3,4-b]indol-1-yl)-3,5-difluorophenyl)-2,7-diazaspiro[4.4]nonan-2-yl)-2-oxoethyl)-1-oxo-3,5,6,7-tetrahydropyrrolo[3,4-f]isoindol-2(1H)-yl)piperidine-2,6-dione] | B (“B”: 10-100 nM) |
| C[C@@H]1Cc2c([nH]c3ccccc23)[C@@H](c2c(F)cc(N3CC4(CCCN(C(=O)CN5Cc6cc7c(cc6C5)C(=O)N(C5CCC(=O)NC5=O)C7)C4)C3)cc2F)N1CC(F)F (stereo partly drawn) [Compound B12, 3-(6-(2-(2-(4-((1R,3R)-2-(2,2-difluoroethyl)-3-methyl-2,3,4,9-tetrahydro-1H-pyrido[3,4-b]indol-1-yl)-3,5-difluorophenyl)-2,6-diazaspiro[3.5]nonan-6-yl)-2-oxoethyl)-1-oxo-3,5,6,7-tetrahydropyrrolo[3,4-f]isoindol-2(1H)-yl)piperidine-2,6-dione] | C (“C”: >100 nM) |
| C[C@@H]1Cc2c([nH]c3ccccc23)[C@@H](c2c(F)cc(N3CCCC4(CN(C(=O)CN5Cc6cc7c(cc6C5)C(=O)N(C5CCC(=O)NC5=O)C7)C4)C3)cc2F)N1CC(F)F (stereo partly drawn) [Compound B13, 3-(6-(2-(6-(4-((1R,3R)-2-(2,2-difluoroethyl)-3-methyl-2,3,4,9-tetrahydro-1H-pyrido[3,4-b]indol-1-yl)-3,5-difluorophenyl)-2,6-diazaspiro[3.5]nonan-2-yl)-2-oxoethyl)-1-oxo-3,5,6,7-tetrahydropyrrolo[3,4-f]isoindol-2(1H)-yl)piperidine-2,6-dione] | B (“B”: 10-100 nM) |
| C[C@@H]1Cc2c([nH]c3ccccc23)[C@@H](c2c(F)cc(N3CC4(CN(C(=O)CN5Cc6cc7c(cc6C5)C(=O)N(C5CCC(=O)NC5=O)C7)C4)C3)cc2F)N1CC(F)F (stereo partly drawn) [Compound B14, 3-(6-(2-(6-(4-((1R,3R)-2-(2,2-difluoroethyl)-3-methyl-2,3,4,9-tetrahydro-1H-pyrido[3,4-b]indol-1-yl)-3,5-difluorophenyl)-2,6-diazaspiro[3.3]heptan-2-yl)-2-oxoethyl)-1-oxo-3,5,6,7-tetrahydropyrrolo[3,4-b]isoindol-2(1H)-yl)piperidine-2,6-dione] | A (“A”: <10 nM) |
| C[C@@H]1Cc2c([nH]c3ccccc23)[C@@H](c2c(F)cc(N3CCC4(CN(C(=O)CN5Cc6cc7c(cc6C5)C(=O)N(C5CCC(=O)NC5=O)C7)C4)C3)cc2F)N1CC(F)F (stereo partly drawn) [Compound B15, 3-(6-(2-(6-(4-((1R,3R)-2-(2,2-difluoroethyl)-3-methyl-2,3,4,9-tetrahydro-1H-pyrido[3,4-b]indol-1-yl)-3,5-difluorophenyl)-2,6-diazaspiro[3.4]octan-2-yl)-2-oxoethyl)-1-oxo-3,5,6,7-tetrahydropyrrolo[3,4-f]isoindol-2(1H)-yl)piperidine-2,6-dione] | A (“A”: <10 nM) |
| C[C@@H]1Cc2c([nH]c3ccccc23)[C@@H](c2c(F)cc(N3CC4(CCN(CC(=O)N5Cc6cc7c(cc6C5)C(=O)N(C5CCC(=O)NC5=O)C7)C4)C3)cc2F)N1CC(F)F (stereo partly drawn) [Compound B16, 3-(6-(2-(2-(4-((1R,3R)-2-(2,2-difluoroethyl)-3-methyl-2,3,4,9-tetrahydro-1H-pyrido[3,4-b]indol-1-yl)-3,5-difluorophenyl)-2,6-diazaspiro[3.4]octan-6-yl)acetyl)-1-oxo-3,5,6,7-tetrahydropyrrolo[3,4-f]isoindol-2(1H)-yl)piperidine-2,6-dione] | A (“A”: <10 nM) |
| C[C@@H]1Cc2c([nH]c3ccccc23)[C@@H](c2c(F)cc(N3CC4(CCN(CC(=O)N5Cc6cc7c(cc6C5)C(=O)N(C5CCC(=O)NC5=O)C7=O)C4)C3)cc2F)N1CC(F)F (stereo partly drawn) [Compound B17, 6-(2-(2-(4-((1R,3R)-2-(2,2-difluoroethyl)-3-methyl-2,3,4,9-tetrahydro-1H-pyrido[3,4-b]indol-1-yl)-3,5-difluorophenyl)-2,6-diazaspiro[3.4]octan-6-yl)acetyl)-2-(2,6-dioxopiperidin-3-yl)-6,7-dihydropyrrolo[3,4-f]isoindole-1,3(2H,5H)-dione] | B (“B”: 10-100 nM) |
| C[C@@H]1Cc2c([nH]c3ccccc23)[C@@H](c2c(F)cc(N3CCC4(CCN(CC(=O)N5Cc6cc7c(cc6C5)C(=O)N(C5CCC(=O)NC5=O)C7=O)C4)C3)cc2F)N1CC(F)F (stereo partly drawn) [Compound B19, 6-(2-(7-(4-((1R,3R)-2-(2,2-difluoroethyl)-3-methyl-2,3,4,9-tetrahydro-1H-pyrido[3,4-b]indol-1-yl)-3,5-difluorophenyl)-2,7-diazaspiro[4.4]nonan-2-yl)acetyl)-2-(2,6-dioxopiperidin-3-yl)-6,7-dihydropyrrolo[3,4-f]isoindole-1,3(2H,5H)-dione] | C (“C”: >100 nM) |
| C[C@@H]1Cc2c([nH]c3ccccc23)[C@@H](c2c(F)cc(N3CC4(CCN(C(=O)CN5Cc6cc7c(cc6C5)C(=O)N(C5CCC(=O)NC5=O)C7=O)C4)C3)cc2F)N1CC(F)F (stereo partly drawn) [Compound B20, 6-(2-(2-(4-((1R,3R)-2-(2,2-difluoroethyl)-3-methyl-2,3,4,9-tetrahydro-1H-pyrido[3,4-b]indol-1-yl)-3,5-difluorophenyl)-2,6-diazaspiro[3.4]octan-6-yl)-2-oxoethyl)-2-(2,6-dioxopiperidin-3-yl)-6,7-dihydropyrrolo[3,4-f]isoindole-1,3(2H,5H)-dione] | A (“A”: <10 nM) |
